# Source: patent publication US8796250B2, “Diaryl ureas for diseases mediated by PDGFR” (Bayer Healthcare LLC, priority 2003, dated 2014)
# Biological target: T1, mouse PDGFR (PDGFR beta) (Mus musculus, UniProt P05622)
# T1 construct: made in house
# Assay: Murine PDGFR FRET Biochemical Assay
# Conditions: 1 nM mouse PDGFR, 20 μM ATP, TR-FRET; read-out: IC50 in biochemical assay (inhibition of PDGFR)
# Source text: Reaction is initiated upon addition of enzyme.
# T1 sequence (P05622 32-1098): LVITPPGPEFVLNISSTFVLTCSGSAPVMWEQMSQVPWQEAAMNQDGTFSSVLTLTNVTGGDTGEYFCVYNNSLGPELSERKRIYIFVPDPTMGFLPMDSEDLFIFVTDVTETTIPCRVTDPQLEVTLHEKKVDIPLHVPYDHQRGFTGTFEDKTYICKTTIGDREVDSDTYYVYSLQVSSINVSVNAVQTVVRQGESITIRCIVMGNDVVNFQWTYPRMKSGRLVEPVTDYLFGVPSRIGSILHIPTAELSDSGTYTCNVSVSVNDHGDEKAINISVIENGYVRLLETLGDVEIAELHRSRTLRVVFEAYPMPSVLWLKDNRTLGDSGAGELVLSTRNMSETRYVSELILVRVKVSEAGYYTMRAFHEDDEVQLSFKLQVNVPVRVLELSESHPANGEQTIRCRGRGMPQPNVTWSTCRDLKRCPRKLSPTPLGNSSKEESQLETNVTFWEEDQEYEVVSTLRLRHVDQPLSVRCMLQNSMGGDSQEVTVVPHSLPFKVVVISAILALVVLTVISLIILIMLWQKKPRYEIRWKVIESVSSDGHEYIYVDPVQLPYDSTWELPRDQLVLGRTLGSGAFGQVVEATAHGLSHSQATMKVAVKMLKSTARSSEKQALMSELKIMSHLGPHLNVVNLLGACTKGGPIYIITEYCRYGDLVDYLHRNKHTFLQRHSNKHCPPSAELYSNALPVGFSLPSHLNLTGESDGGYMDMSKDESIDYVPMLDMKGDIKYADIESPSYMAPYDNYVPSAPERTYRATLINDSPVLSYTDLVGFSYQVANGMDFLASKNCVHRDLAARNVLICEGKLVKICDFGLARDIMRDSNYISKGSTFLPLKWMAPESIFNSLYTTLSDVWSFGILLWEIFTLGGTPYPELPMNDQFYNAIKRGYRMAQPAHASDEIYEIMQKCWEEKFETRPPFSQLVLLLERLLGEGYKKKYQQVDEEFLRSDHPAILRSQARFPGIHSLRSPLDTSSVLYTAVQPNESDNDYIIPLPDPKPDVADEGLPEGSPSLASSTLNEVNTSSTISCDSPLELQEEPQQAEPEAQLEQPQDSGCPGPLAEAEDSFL
row,IC50 [µM],SMILES
1,< 10,CNC(=O)c1cc(Oc2ccc(NC(=O)Nc3ccc(Br)c(C(F)(F)F)c3)c(F)c2)ccn1 [N-(4-bromo-3-(trifluoromethyl)phenyl)-N′-(4-(2-(N-methylcarbamoyl)-4-pyridyloxy)-2-fluorophenyl) urea]
2,< 10,CNC(=O)c1cc(Oc2ccc(NC(=O)Nc3ccc(Cl)c(C(F)(F)F)c3)c(Cl)c2)ccn1 [N-(4-chloro-3-(trifluoromethyl)phenyl)-N′-(4-(2-(N-methylcarbamoyl)-4-pyridyloxy)-2-chlorophenyl) urea]
3,< 10,CNC(=O)c1cc(Oc2ccc(NC(=O)Nc3ccc(F)c(C(F)(F)F)c3)c(F)c2)ccn1 [N-(4-fluoro-3-(trifluoromethyl)phenyl)-N′-(4-(2-(N-methylcarbamoyl)-4-pyridyloxy)-2-fluorophenyl) urea]
4,< 10,"N#Cc1cc(Oc2ccc(NC(=O)Nc3ccc4c(c3)C(F)(F)OC(F)(F)O4)c(F)c2)ccn1 [N-(6-(2,2,4,4-tetrafluoro-4H-benzo[1,3]dioxinyl))-N′-(4-(2-cyano-4-pyridyloxy)-2-fluorophenyl) urea]"
5,< 10,"N#Cc1cc(Oc2ccc(NC(=O)Nc3ccc4c(c3)C(F)(F)OC(F)(F)O4)cc2)ccn1 [N-(6-(2,2,4,4-tetrafluoro-4H-benzo[1,3]dioxinyl))-N′-(4-(2-cyano-4-pyridyloxy)phenyl) urea]"

# Continued, compound first:
row,SMILES,IC50 [µM]
1,CNC(=O)c1cc(Oc2ccc(NC(=O)Nc3ccc(Br)c(C(F)(F)F)c3)c(Cl)c2)ccn1 [N-(4-bromo-3-(trifluoromethyl)phenyl)-N′-(4-(2-(N-methylcarbamoyl)-4-pyridyloxy)-2-chlorophenyl) urea],< 10
2,CNC(=O)c1cc(Oc2ccc(NC(=O)Nc3ccc(Br)c(C(F)(F)F)c3)cc2)ccn1 [N-(4-bromo-3-(trifluoromethyl)phenyl)-N′-(4-(2-(N-methylcarbamoyl)-4-pyridyloxy)phenyl) urea],< 10
3,CNC(=O)c1cc(Oc2ccc(NC(=O)Nc3ccc(Cl)c(C(F)(F)F)c3)cc2)cc[n+]1[O-] [N-(4-chloro-3-(trifluoromethyl)phenyl)-N′-(4-(1-hydroxy-2-(N-methylcarbamoyl)-4-pyridyloxy)phenyl) urea],< 10
4,NC(=O)c1cc(Oc2ccc(NC(=O)Nc3ccc(Cl)c(C(F)(F)F)c3)cc2)cc[n+]1[O-] [N-(4-chloro-3-(trifluoromethyl)phenyl)-N′-(4-(1-hydroxy-2-carbamoyl-4-pyridyloxy)phenyl) urea],< 10
5,CNC(=O)c1cc(Oc2ccc(NC(=O)Nc3ccc(Cl)c(C(F)(F)F)c3)cc2)ccn1 [N-(4-chloro-3-(trifluoromethyl)phenyl)-N′-(4-(2-(N-methylcarbamoyl)-4-pyridyloxy)phenyl) urea],< 10
6,NC(=O)c1cc(Oc2ccc(NC(=O)Nc3ccc(Cl)c(C(F)(F)F)c3)cc2)ccn1 [N-(4-chloro-3-(trifluoromethyl)phenyl)-N′-(4-(2-carbamoyl-4-pyridyloxy)phenyl) urea],< 10

# Biological target: T2, PDGFR-beta phosphorylation (Tyr-857) in Aortic SMC stimulated with PDGF BB (Homo sapiens, UniProt P09619)
# T2 construct: endogenous in cells; host or cells: Aortic SMC (AoSMC), passages P3-P6
# T2 sequence (P09619 33-1106): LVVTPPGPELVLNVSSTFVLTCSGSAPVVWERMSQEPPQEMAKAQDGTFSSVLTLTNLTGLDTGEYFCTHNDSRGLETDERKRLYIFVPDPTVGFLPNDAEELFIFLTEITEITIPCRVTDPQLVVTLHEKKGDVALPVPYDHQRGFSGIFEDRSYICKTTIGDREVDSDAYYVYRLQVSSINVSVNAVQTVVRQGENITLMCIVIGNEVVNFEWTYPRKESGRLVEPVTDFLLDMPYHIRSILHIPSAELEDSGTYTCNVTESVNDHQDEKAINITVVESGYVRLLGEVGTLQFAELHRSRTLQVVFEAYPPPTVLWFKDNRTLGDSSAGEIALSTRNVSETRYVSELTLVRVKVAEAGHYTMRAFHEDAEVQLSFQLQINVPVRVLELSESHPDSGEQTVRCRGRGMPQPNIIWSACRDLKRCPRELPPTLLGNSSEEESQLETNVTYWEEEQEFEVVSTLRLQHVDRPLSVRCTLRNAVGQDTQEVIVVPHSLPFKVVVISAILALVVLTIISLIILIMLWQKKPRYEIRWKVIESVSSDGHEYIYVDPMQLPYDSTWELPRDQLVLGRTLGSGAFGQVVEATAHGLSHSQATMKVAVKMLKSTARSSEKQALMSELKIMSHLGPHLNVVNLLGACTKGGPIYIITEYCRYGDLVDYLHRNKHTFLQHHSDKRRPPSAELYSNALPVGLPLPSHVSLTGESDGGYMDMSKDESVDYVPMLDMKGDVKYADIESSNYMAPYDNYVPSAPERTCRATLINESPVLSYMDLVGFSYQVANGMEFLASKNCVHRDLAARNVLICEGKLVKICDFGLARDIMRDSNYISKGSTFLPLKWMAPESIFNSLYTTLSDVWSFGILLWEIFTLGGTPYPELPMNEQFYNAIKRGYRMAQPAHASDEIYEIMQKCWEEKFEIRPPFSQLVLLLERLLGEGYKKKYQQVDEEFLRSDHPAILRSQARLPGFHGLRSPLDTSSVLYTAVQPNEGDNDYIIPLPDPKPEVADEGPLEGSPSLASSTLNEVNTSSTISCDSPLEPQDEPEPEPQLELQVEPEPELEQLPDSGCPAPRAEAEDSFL
# Assay: pPDGFR-Beta Sandwich ELISA in AoSMC Cells
# Type: cell-based
# Conditions: 1 hr compound, 10 ng/mL PDGF BB for 7 minutes, read-out: IC50 in bioassay of PDGFR inhibition in cells
# Procedure: 100K P3-P6 Aortic SMC were plated in each well of 12-well cluster in 1000 uL volume/well of SGM-2 using standard cell culture techniques. Next day, cells were rinsed with 1000 uL D-PBS (Gibco) once, then serum starved in 500 uL SBM (smooth muscle cell basal media) with 0.1% BSA (Sigma, Cat A9576) overnight. Compounds were diluted at a dose range from (10 uM to 1 nM in 10-fold dilution steps in DMSO. Final DMSO concentration 0.1%). Remove old media by inversion into the sink quickly then add 100 ul of each dilution to corresponding well of cells for 1 hr at 37° C. Cells were then stimulated with 10 ng/mL PDGF BB ligand for 7 minutes at 37° C. The media is decanted and 150 uL of isotonic lysis buffer with protease inhibitor tablet (Complete; EDTA-free) and 0.2 mM Na vanadate is added. Cells are lysed for 15 min at 4° C. on shaker in cold room. […] Next day, beads are rinsed in 50-volumes of PBS three times and boiled in 1×LDS sample buffer (Invitrogen) for 5 minutes. Samples were run on 3-8% gradient Tris-Acetate gels (Invitrogen) and transferred onto Nitrocellulose. […] After three washes in TBS-T, membranes were incubated in Goat anti-rabbit HRP IgG (Amersham, 1:25000 dilution) for 1 hr. Three more washes followed before addition of ECL substrate. Membranes were exposed to Hyperfilm-ECL.
row,IC50 [µM],SMILES
1,< 10,CNC(=O)c1cc(Oc2ccc(NC(=O)Nc3ccc(Cl)c(C(F)(F)F)c3)c(Cl)c2)ccn1 [N-(4-chloro-3-(trifluoromethyl)phenyl)-N′-(4-(2-(N-methylcarbamoyl)-4-pyridyloxy)-2-chlorophenyl) urea]

# System: restenosis following angioplasty
# Assay: not given
# Conditions: G. Bilder et al. Circulation 1999; cited from earlier work
row,SMILES,effect on restenosis following angioplasty
1,COc1cc2ncc(-c3ccsc3)nc2cc1OC.Cl [RPR101511A],prevented angiographically defined restenosis following angioplasty

# System: neointimal formation
# Assay: not given
# Conditions: rat model; M. Karck et al. 2002; cited from earlier work
row,SMILES,effect on neointimal formation in aortic allograft vasculopathy
1,Cc1cc2ncc(-c3ccccc3)nc2cc1C [AG-1295],reduce neointimal formation
